Tests used:
gut vessel plexus = assay: Zebrafish angiogenesis assay: scoring of the gut vessel plexus in transgenic GFP fish; assay type: in vivo, Zebrafish (Danio rerio); set-up: Inhibition of gut vessel formation: scale not given here; conditions: for Inhibition of gut vessel formation: transgenic GFP fish incubated 24 h.p.f. to 5 d.p.f., gut vessel plexus scored by microscopy; for concentrations showing concentration-dependent inhibition of vessels: gut vessels
Excerpt: Zebrafish (Danio rerio) are ideal organisms for the investigation of blood vessel growth because they are transparent in the embryonic and larval stages of development so that blood vessels marked with a fluorescent marker can clearly be seen in vivo in the live animal. Zebrafish blood vessel development is well characterised and vessels can be visualised by microangiography or by expressing green fluorescent protein in blood vessels (Isogai et al. (2001) Dev Biol 230(2): 278-301; Covassin et al. (2006) Proc Natl Acad Sci USA 103(17): 6554-9). Zebrafish are also ideal vertebrate organisms in which to screen for active small molecules because the larvae can be treated with compound simply by immersion of the fish in compound solution in wells of a standard multi-well plate (12, 24 or 96-wells).
Expression of the zebrafish PR can be detected as early as 48 hours post fertilisation and an assay was therefore developed to investigate the effects of compounds on blood vessel formation in zebrafish after this time. Previous studies on inhibition of blood vessel growth have focussed on formation of intersegmental vessels (Serbedzija et al. (1999) Angiogenesis 3(4): 353-9; Parng at al. (2002) Assay Drug Dev Technol 1(1 Pt 1): 41-8) but these particular vessels are specified and begin to form prior to the time when the PR is expressed in the zebrafish embryo. Accordingly, later-developing vessels around the gut, the vascular plexus of the mid gut which branches from the subintestinal vein and supraintestinal artery, were monitored.
A similar method was developed for screening of compounds using a line of fish that express GFP under control of an enhancer that drives expression in blood vessels, spinal cord and eyes. The fish are a cross between the et19.1 enhancer:Gal4 line (Scott et al. (2007) Nat Methods 4(4): 323-6) and a UAS:GFP line made in-house in a TL zebrafish background. Transgenic zebrafish embryos or larvae expressing GFP in the blood vessel walls were treated with test compounds by immersion in aqueous medium containing the compound at the required concentration, for a period of one or more days. At the end of the incubation period the fish were immobilised on their sides and the organisation and structure of the vasculature was visualised by fluorescent microscopy, which is possible because of the transparency of zebrafish larvae. The vessels can be identified by comparison with the online Interactive Atlas of Zebrafish Vascular Anatomy (Isogai et al. (2001) Dev Biol 230(2): 278-301).
Vessels such as the dorsal aorta, posterior cardinal vein, caudal artery, caudal vein, intersegmental vessels, dorsal longitudinal anastomotic vessels and the gut vessel plexus were assessed in each fish and compared to the control group. […] A subjective score was given to the fore/mid gut vessel plexus (by assessment of the number of visible vessels and extent of spread of the plexus), ranging from “3” for a normal extensively vascularised gut, to “0” for a complete absence of any branching of vessels around the gut. The intestinal vessel plexus forms between 3 and 5 days post fertilisation (d.p.f.) and so these assays were usually scored at 5 d.p.f. The vessels could also be quantified by digital photography and quantification of fluorescence levels or number of vessels in the region of interest.
Assays using Tg 043/050 uas:GFP+/−enhancer:gal4+/−×TL (“panretinal” enhancer) fish, incubated with various compounds (see Table below) from 24 h.p.f. to 5 d.p.f. (unless otherwise stated), then scoring the extent of the gut vessel plexus by microscopy. A score of 3 represents a good, fully formed gut vessel plexus, with 20 or more branched vessels; 2 represents as slightly less well formed plexus with 10-19 vessels; 1 represents a poorly formed plexus with 1-9 vessels; 0 represents a complete absence of visible gut vessels. Each of the compounds was tested in a 24 hour MTC assay in the TL strain of wild type fish (24-48 h.p.f.). […]

[1] = tested on: TL strain of wild type fish; assay: 24 hour MTC assay in the TL strain of wild type fish; assay type: in vivo, Zebrafish (Danio rerio); conditions: 24-48 h.p.f.
Protocol: Assays using Tg 043/050 uas:GFP+/−enhancer:gal4+/−×TL (“panretinal” enhancer) fish, incubated with various compounds (see Table below) from 24 h.p.f. to 5 d.p.f. (unless otherwise stated), then scoring the extent of the gut vessel plexus by microscopy. A score of 3 represents a good, fully formed gut vessel plexus, with 20 or more branched vessels; 2 represents as slightly less well formed plexus with 10-19 vessels; 1 represents a poorly formed plexus with 1-9 vessels; 0 represents a complete absence of visible gut vessels. Each of the compounds was tested in a 24 hour MTC assay in the TL strain of wild type fish (24-48 h.p.f.). The MTC from this assay was used as the highest concentration for assays in the transgenic fish, with half-log intervals.

[2] = cited from earlier work

| SMILES | Inhibition of gut vessel formation (gut vessel plexus) | MTC [1] | also measured |
| --- | --- | --- | --- |
| CC1=CC(C)(C)Nc2ccc(-c3csc(C#N)c3)cc21 [LG121046] | ++ | 3 to 10 µM | – |
| CC1=CC(C)(C)Nc2ccc(-c3cccc(C#N)c3)cc21 [LG120753] | + | 3 µM | concentrations showing concentration-dependent inhibition of vessels (gut vessel plexus): 0.3 to 3 µM |
| CN(C)c1ccc(C2CC3(C)C(CCC3(O)C#CCO)C3CCC4=CC(=O)CCC4=C23)cc1 (centres unmarked) [RU42698] | ++ | 100 µM | concentrations showing concentration-dependent inhibition of vessels (gut vessel plexus): 30 to 100 µM |
| CC1(C)OC(=O)Nc2ccc(-c3cc(F)cc(Cl)c3)cc21 [Wyeth 4g] | ++ | 3 µM | – |
| COC[C@]1(OC)CC[C@H]2[C@@H]3CCC4=CC(=O)CCC4=C3[C@@H](c3ccc(/C=N/O)cc3)C[C@@]21C [Asoprisnil] | + | 10 µM | – |
| CC#C[C@]1(O)CC[C@H]2[C@@H]3CCC4=CC(=O)CCC4=C3[C@@H](c3ccc(N(C)C)cc3)C[C@@]21C [RU486, 17beta-hydroxy-11-beta-(4-dimethylaminophenyl)-17alpha-(prop-1-ynyl)-estra-4,9-dien-3-one] | +++ | 10 to 30 µM | plasma half life ([2]; after oral dosing): 20 to 30 h; time to peak plasma levels ([2]; after oral dosing): 1 to 2 h; oral bioavailability ([2]; oral): 40-70%; inhibition of gut vessel formation (in words) (gut vessel plexus): dose-dependent; rescue of vessel inhibition by progesterone (gut vessel plexus; 10 μM of each (RU486 and progesterone)): rescued by progesterone |
| CC1(C)OC(=O)Nc2ccc(-c3cc(F)cc(C#N)c3)cc21 [Wyeth 4h] | ++ | 30 µM | concentration of maximal inhibition of gut vessels (gut vessel plexus; data not shown): 30 µM |
| CC1(C)OC(=O)Nc2ccc(-c3ccc(F)c(Cl)c3)cc21 [Wyeth 4j] | + | 1 to 3 µM | – |
| Cc1cc(C)c(/C=C2\C(=O)Nc3ccccc32)[nH]1 [SU5416] | – | – | inhibition of gut vessel formation (in words) (gut vessel plexus): vessel formation was inhibited |
| CC#CC1(O)CCC2C3CCC4=CC(=O)CCC4=C3C(c3ccc(NC)cc3)CC21C (centres unmarked) [RU42633] | +++ | 30 µM | concentration of best inhibition of gut vessels (gut vessel plexus; concentration response curves, 1-5 dpf): 30 µM |
| CC#CC1(O)CCC2C3CCC4=CC(=O)CCC4=C3C(c3ccc(N)cc3)CC21C (centres unmarked) [RU42848] | + | 100 µM | – |
| CC1(C)OC(=O)Nc2ccc(-c3ccc(F)c(C#N)c3)cc21 [Wyeth 6] | + | 100 µM | – |
